Reference: ChEMBL document CHEMBL1156251, “Structure--activity relationships of polymyxin antibiotics” (J Med Chem, 2010)
≈ marks a conversion by molar mass, not a printed value. Where “and” joins values, the source holds several entries; their conditions need not be identical. Equal values may be shown once. Where a SMILES comes first, the peptide text is derived from it. Bridges are numbered along the chain shown (N, C = ends). [ ]: non-standard residue; d: D form. The star is where a group is joined. Nonanoyl = CCCCCCCCC(=O)*; Heptanoyl = CCCCCCC(=O)*; Octanoyl = CCCCCCCC(=O)*; Dab = NCC[C@H](N)C(=O)O

Experiments:
Escherichia coli = test: Antimicrobial activity against Escherichia coli; type: functional
Klebsiella pneumoniae = test: Antimicrobial activity against Klebsiella pneumoniae; type: functional
Salmonella enterica = test: Antimicrobial activity against Salmonella enterica; type: functional
Pseudomonas aeruginosa = test: Antimicrobial activity against Pseudomonas aeruginosa; type: functional, organism-based
Lipopolysaccharide (LPS) = test: Displacement of dansyl-PMB from LPS by isothermal titration calorimetry

| MIC (Escherichia coli) | MIC (Klebsiella pneumoniae) | MIC (Salmonella enterica) | MIC (Pseudomonas aeruginosa) | IC50 (Lipopolysaccharide (LPS)) | SMILES |
| --- | --- | --- | --- | --- | --- |
| 6.2 µg/mL | 1.6 µg/mL (≈ 0.983 µM) | – | – | – | CCC(C)CCCCC(=O)N[C@@H](CCNCc1ccc(O)cc1)C(=O)N[C@H](C(=O)N[C@@H](CCN)C(=O)N[C@H]1CCNC(=O)[C@H]([C@@H](C)O)NC(=O)[C@H](CCNCc2ccc(O)cc2)NC(=O)[C@H](CCNCc2ccc(O)cc2)NC(=O)[C@H](CC(C)C)NC(=O)[C@@H](Cc2ccccc2)NC(=O)[C@H](CCNCc2ccc(O)cc2)NC1=O)[C@@H](C)O (stereo partly specified) |
| 0.08 µg/mL | 26 µg/mL (≈ 17.1 µM) | – | – | – | CCC(C)CCCCC(=O)N[C@@H](CC/N=C/c1ccccc1)C(=O)N[C@H](C(=O)N[C@@H](CCN)C(=O)N[C@H]1CCNC(=O)[C@H]([C@@H](C)O)NC(=O)[C@H](CC/N=C/c2ccccc2)NC(=O)[C@H](CC/N=C/c2ccccc2)NC(=O)[C@H](CC(C)C)NC(=O)[C@@H](CC(C)C)NC(=O)[C@H](CC/N=C/c2ccccc2)NC1=O)[C@@H](C)O (stereo partly specified) |
| 12 µg/mL | 3.1 µg/mL (≈ 1.83 µM) | – | – | – | CCC(C)CCCCC(=O)N[C@@H](CC/N=C/c1ccc(N(C)C)cc1)C(=O)N[C@H](C(=O)N[C@@H](CCN)C(=O)N[C@H]1CCNC(=O)[C@H]([C@@H](C)O)NC(=O)[C@H](CC/N=C/c2ccc(N(C)C)cc2)NC(=O)[C@H](CC/N=C/c2ccc(N(C)C)cc2)NC(=O)[C@H](CC(C)C)NC(=O)[C@@H](CC(C)C)NC(=O)[C@H](CC/N=C/c2ccc(N(C)C)cc2)NC1=O)[C@@H](C)O (stereo partly specified) |
| – | 26 µg/mL (≈ 14.9 µM) | – | – | – | CCC(C)CCCCC(=O)N[C@@H](CC/N=C/c1ccc(O)c(OC)c1)C(=O)N[C@@H](C(=O)N[C@@H](CCN)C(=O)N[C@H]1CCNC(=O)[C@@H]([C@@H](C)O)NC(=O)[C@H](CC/N=C/c2ccc(O)c(OC)c2)NC(=O)[C@H](CC/N=C/c2ccc(O)c(OC)c2)NC(=O)[C@H](CC(C)C)NC(=O)[C@@H](Cc2ccccc2)NC(=O)[C@H](CC/N=C/c2ccc(O)c(OC)c2)NC1=O)[C@@H](C)O (stereo partly specified) |
| 5.5 µg/mL | 1.4 µg/mL (≈ 0.878 µM) | – | – | – | CCC(C)CCCCC(=O)N[C@@H](CCNCc1ccc(O)cc1)C(=O)N[C@H](C(=O)N[C@@H](CCN)C(=O)N[C@H]1CCNC(=O)[C@H]([C@@H](C)O)NC(=O)[C@H](CCNCc2ccc(O)cc2)NC(=O)[C@H](CCNCc2cccc(O)c2)NC(=O)[C@H](CC(C)C)NC(=O)[C@@H](CC(C)C)NC(=O)[C@H](CCNCc2ccc(O)cc2)NC1=O)[C@@H](C)O (stereo partly specified) |
| 12 µg/mL | 3.1 µg/mL (≈ 1.67 µM) | – | – | – | CCC(C)CCCCC(=O)N[C@@H](CC/N=C/c1ccc(N(C)C)cc1)C(=O)N[C@@H](C(=O)N[C@@H](CC/N=C/c1ccc(N(C)C)cc1)C(=O)N[C@H]1CCNC(=O)[C@@H]([C@@H](C)O)NC(=O)[C@H](CC/N=C/c2ccc(N(C)C)cc2)NC(=O)[C@H](CC/N=C/c2ccc(N(C)C)cc2)NC(=O)[C@H](CC(C)C)NC(=O)[C@@H](Cc2ccccc2)NC(=O)[C@H](CC/N=C\c2ccc(N(C)C)cc2)NC1=O)[C@@H](C)O (stereo partly specified) |
| 12 µg/mL | 26 µg/mL (≈ 15 µM) | – | – | – | CCC(C)CCCCC(=O)N[C@@H](CCNCc1ccc(C(C)C)cc1)C(=O)N[C@@H](C(=O)N[C@@H](CCN)C(=O)N[C@H]1CCNC(=O)[C@@H]([C@@H](C)O)NC(=O)[C@H](CCNCc2ccc(C(C)C)cc2)NC(=O)[C@H](CCNCc2ccc(C(C)C)cc2)NC(=O)[C@H](CC(C)C)NC(=O)[C@@H](Cc2ccccc2)NC(=O)[C@H](CCNCc2ccc(C(C)C)cc2)NC1=O)[C@@H](C)O (stereo partly specified) |
| – | 26 µg/mL (≈ 16.7 µM) | – | – | – | CCC(C)CCCCC(=O)N[C@@H](CC/N=C/c1ccccc1)C(=O)N[C@H](C(=O)N[C@@H](CCN)C(=O)N[C@H]1CCNC(=O)[C@H]([C@@H](C)O)NC(=O)[C@H](CC/N=C/c2ccccc2)NC(=O)[C@H](CC/N=C/c2ccccc2)NC(=O)[C@H](CC(C)C)NC(=O)[C@@H](Cc2ccccc2)NC(=O)[C@H](CC/N=C/c2ccccc2)NC1=O)[C@@H](C)O (stereo partly specified) |
| 0.5 µM | – | 0.5 µM (≈ 0.588 µg/mL) | 0.5 µM (≈ 0.588 µg/mL) | 10 µM | CCCCCCC(=O)N[C@@H](CCN)C(=O)N[C@H](C(=O)N[C@@H](CCN)C(=O)N[C@H]1CCNC(=O)[C@H]([C@@H](C)O)NC(=O)[C@H](CCN)NC(=O)[C@H](CCN)NC(=O)[C@H](CC(C)C)NC(=O)[C@@H](Cc2ccccc2)NC(=O)[C@H](CCN)NC1=O)[C@@H](C)O [POLYMYXIN B4] (Heptanoyl-[Dab]T[Dab][Dab][Dab][dF]L[Dab][Dab]T; lactam 4-C) |
| 64 µM | – | 64 µM (≈ 70 µg/mL) | 1 µM (≈ 1.09 µg/mL) | >= 32 nmol/ml | CC(C)C[C@@H]1NC(=O)[C@@H](Cc2ccccc2)NC(=O)[C@H](CCN)NC(=O)[C@@H](NC(=O)[C@H](CCN)NC(=O)[C@@H](NC(=O)[C@H](CO)NC(=O)O)[C@@H](C)O)CCNC(=O)[C@H]([C@@H](C)O)NC(=O)[C@H](CCN)NC(=O)[C@H](CCN)NC1=O [DESFA-[SER1]POLYMYXIN B] |
| 0.5 µM | – | 0.5 µM (≈ 0.61 µg/mL) | 0.5 µM (≈ 0.61 µg/mL) | 7 µM | CCC(C)CCC(O)CC(=O)N[C@@H](CCN)C(=O)N[C@H](C(=O)N[C@@H](CCN)C(=O)N[C@H]1CCNC(=O)[C@H]([C@@H](C)O)NC(=O)[C@H](CCN)NC(=O)[C@H](CCN)NC(=O)[C@H](CC(C)C)NC(=O)[C@@H](Cc2ccccc2)NC(=O)[C@H](CCN)NC1=O)[C@@H](C)O (stereo partly specified) [POLYMYXIN B6] |
| 2 µM | – | 2 µM (≈ 2.46 µg/mL) | 2 µM (≈ 2.46 µg/mL) | 6 µM | CCCCCCCC(=O)N[C@@H](CCN)C(=O)N[C@H](C(=O)N[C@@H](CCN)C(=O)N[C@H]1CCNC(=O)[C@H]([C@@H](C)O)NC(=O)[C@H](CCN)NC(=O)[C@H](CCN)NC(=O)[C@H](CC(C)C)NC(=O)C(Cc2c[nH]c3ccccc23)NC(=O)[C@H](CCN)NC1=O)[C@@H](C)O (stereo in doubt) |
| 16 µM | – | 16 µM (≈ 15.8 µg/mL) | 8 µM (≈ 7.91 µg/mL) | 14 µM | CCCCCCCC(=O)N[C@@H](CCN)C(=O)N[C@H]1CCNC(=O)[C@H]([C@@H](C)O)NC(=O)[C@H](CCN)NC(=O)[C@H](CCN)NC(=O)[C@H](CC(C)C)NC(=O)[C@@H](Cc2ccccc2)NC(=O)[C@H](CCN)NC1=O |
| 8 µM | – | 16 µM (≈ 17.7 µg/mL) | 4 µM (≈ 4.43 µg/mL) | 19 µM | CC(C)C[C@@H]1NC(=O)[C@@H](Cc2ccccc2)NC(=O)[C@H](CCN)NC(=O)[C@@H](NC(=O)[C@H](CCN)NC(=O)[C@@H](NC(=O)[C@H](CCN)NC(=O)O)[C@@H](C)O)CCNC(=O)[C@H]([C@@H](C)O)NC(=O)[C@H](CCN)NC(=O)[C@H](CCN)NC1=O [DESFA-[DAB1]POLYMYXIN B] |
| 2 µM | – | 2 µM (≈ 2.38 µg/mL) | 2 µM (≈ 2.38 µg/mL) | 10 µM | CCCCCCCC(=O)N[C@@H](CCN)C(=O)N[C@H](C(=O)N[C@@H](CCN)C(=O)N[C@H]1CCNC(=O)[C@H]([C@@H](C)O)NC(=O)[C@H](CCN)NC(=O)[C@H](CCN)NC(=O)[C@H](CC(C)C)NC(=O)[C@H](Cc2ccccc2)NC(=O)[C@H](CCN)NC1=O)[C@@H](C)O |
| 16 µM | – | 32 µM (≈ 36.3 µg/mL) | 32 µM (≈ 36.3 µg/mL) | 22 µM | CC(C)C[C@@H]1NC(=O)[C@@H](Cc2ccccc2)NC(=O)[C@H](CCN)NC(=O)[C@@H](NC(=O)[C@H](CCN)NC(=O)[C@@H](NC(=O)[C@H](CCCCN)NC(=O)O)[C@@H](C)O)CCNC(=O)[C@H]([C@@H](C)O)NC(=O)[C@H](CCN)NC(=O)[C@H](CCN)NC1=O [DESFA-[LYS1]POLYMYXIN B] |
| 2 µM | – | 2 µM (≈ 2.53 µg/mL) | 2 µM (≈ 2.53 µg/mL) | 5 µM | CCCCCCCC(=O)N[C@@H](CCN)C(=O)N[C@H](C(=O)N[C@@H](CCN)C(=O)N[C@H]1CCNC(=O)[C@H]([C@@H](C)O)NC(=O)[C@H](CCN)NC(=O)[C@H](CCN)NC(=O)[C@H](Cc2c[nH]c3ccccc23)NC(=O)[C@@H](Cc2ccccc2)NC(=O)[C@H](CCN)NC1=O)[C@@H](C)O |
| ≥ 256 µM and ≥ 300 µg/mL | – | ≥ 256 µM | 128 µM (≈ 97.5 µg/mL) | >= 32 nmol/ml | CC(C)C[C@@H]1NC(=O)[C@@H](Cc2ccccc2)NC(=O)[C@H](CCN)NC(=O)[C@@H](N)CCNC(=O)[C@H]([C@@H](C)O)NC(=O)[C@H](CCN)NC(=O)[C@H](CCN)NC1=O [POLYMYXIN B HEPTAPEPTIDE] |
| 1 µM | – | 1 µM (≈ 1.2 µg/mL) | 1 µM (≈ 1.2 µg/mL) | 6 µM | CCCCCCCCC(=O)N[C@@H](CCN)C(=O)N[C@H](C(=O)N[C@@H](CCN)C(=O)N[C@H]1CCNC(=O)[C@H]([C@@H](C)O)NC(=O)[C@H](CCN)NC(=O)[C@H](CCN)NC(=O)[C@H](CC(C)C)NC(=O)[C@@H](Cc2ccccc2)NC(=O)[C@H](CCN)NC1=O)[C@@H](C)O [POLYMYXIN B5] (Nonanoyl-[Dab]T[Dab][Dab][Dab][dF]L[Dab][Dab]T; lactam 4-C) |
| 1 µM | – | 1 µM (≈ 1.15 µg/mL) | 1 µM (≈ 1.15 µg/mL) | 5 µM | CCCCCCCC(=O)N[C@@H](CCN)C(=O)N[C@H](C(=O)N[C@@H](CCN)C(=O)N[C@H]1CCNC(=O)[C@H]([C@@H](C)O)NC(=O)[C@H](CCN)NC(=O)[C@H](CCN)NC(=O)[C@H](C)NC(=O)[C@@H](Cc2ccccc2)NC(=O)[C@H](CCN)NC1=O)[C@@H](C)O |
| – | 26 µg/mL (≈ 16.1 µM) | – | – | – | CCC(C)CCCCC(=O)N[C@@H](CC/N=C/c1ccc(O)cc1)C(=O)N[C@H](C(=O)N[C@@H](CCN)C(=O)N[C@H]1CCNC(=O)[C@H]([C@@H](C)O)NC(=O)[C@H](CC/N=C/c2ccc(O)cc2)NC(=O)[C@H](CC/N=C/c2ccc(O)cc2)NC(=O)[C@H](CC(C)C)NC(=O)[C@@H](Cc2ccccc2)NC(=O)[C@H](CC/N=C/c2ccc(O)cc2)NC1=O)[C@@H](C)O (stereo partly specified) |
| 2 µM | – | 16 µM (≈ 17.6 µg/mL) | 1 µM (≈ 1.1 µg/mL) | 11 µM | CCCCCCCC(=O)N[C@@H](CCN)C(=O)N[C@H](C(=O)N[C@@H](CCN)C(=O)N[C@H]1CCNC(=O)[C@H]([C@@H](C)O)NC(=O)[C@H](CCN)NC(=O)[C@H](CCN)NC(=O)[C@H](CC(C)C)NC(=O)CNC(=O)[C@H](CCN)NC1=O)[C@@H](C)O (Octanoyl-[Dab]T[Dab][Dab][Dab]GL[Dab][Dab]T; lactam 4-C) |
| ≥ 256 µM | – | > 256 µM | 256 µM (≈ 291 µg/mL) | >= 32 nmol/ml | CC(C)C[C@@H]1NC(=O)[C@@H](Cc2ccccc2)NC(=O)[C@H](CCN)NC(=O)[C@@H](NC(=O)[C@H](CCN)NC(=O)[C@@H](NC(=O)[C@H](CCC(=O)O)NC(=O)O)[C@@H](C)O)CCNC(=O)[C@H]([C@@H](C)O)NC(=O)[C@H](CCN)NC(=O)[C@H](CCN)NC1=O [DESFA-[GLU1]POLYMYXIN B] |
